From patent US10611778B2, “Fused bicyclic inhibitors of menin-MLL interaction” (Janssen Pharmaceutica NV, priority 2016, dated 2020) come the findings set out here.

Where “and” joins values, the source holds several entries; their conditions need not be identical. Equal values may be shown once. Read-outs that look alike come from different tables or passages of the source.

One test has as its system MOLM14. Briefly: Proliferation assay (spheroid assay) MOLM14. The test is classed as cell-based, human. As to conditions: Homo sapiens. The protocol: (§1) The anti-proliferative effect of menin/MLL protein/protein interaction inhibitor test compounds was assessed in human leukemia cell lines. The cell lines MV-4-11 and MOLM14 harbor MLL translocations and express the MLL fusion proteins MLL-AF4 and MLL-AF9, respectively, as well as the wildtype protein from the second allele. […] K562 and KG1 were used as a control cell lines containing two MLL wildtype alleles in order to exclude compounds that display general cytotoxic effects.
(§2) MV-4-11 and MOLM14 were cultured in RPMI-1640 (Sigma Aldrich) supplemented with 10% fetal bovine serum (HyClone), 2 mM L-glutamine (Sigma Aldrich) and 50 μg/ml gentamycin (Gibco). K562 were propagated in RPMI-1640 (Sigma Aldrich) supplemented with 20% fetal bovine serum (HyClone), 2 mM L-glutamine (Sigma Aldrich) and 50 μg/ml gentamycin (Gibco). KG1 were cultured in Iscove's MDM (Gibco) supplemented with 20% fetal bovine serum (HyClone), 2 mM L-glutamine (Sigma Aldrich) and 50 μg/ml gentamycin (Gibco).
(§3) In order to assess the anti-proliferative effects, 1,500 MV-4-11, 300 MOLM14, 750 K562 or 1,300 KG1 cells were seeded in 200 μl media per well in 96-well round bottom, ultra-low attachment plates (Costar, catalogue number 7007). Cell seeding numbers were chosen based on growth curves to ensure linear growth throughout the experiment. Test compounds were added at different concentrations and the DMSO content was normalized to 0.3%. Cells were incubated for 8 d at 37° C. and 5% CO2. Spheroid like growth was monitored in real-time by live-cell imaging (IncuCyteZOOM, Essenbio, 4× objective) acquiring one image every four hours for 8 d. Confluence (%) as a measure of spheroid size was determined using an integrated analysis tool.
(§4) In order to determine the cumulative effect of the test compounds over time, the area under the curve (AUC) in a plot of confluence against time was calculated. Confluence at the beginning of the experiment (t=0) was used as baseline for the AUC calculation.
(§5) Absolute IC50 values were calculated according to the following procedure: % Control=(AUC sample/AUC control)*100
(§6) AUC control=mean AUC of control values (cells without compound/DMSO as vehicle control)
(§7) A non-linear curve fit was applied using the least squares (ordinary) fit method to the plot of % control versus compound concentration. Based on this, the absolute IC50 value (half maximal inhibitory concentration of the test compound causing an anti-proliferative effect of 50% relative to the vehicle control) was calculated.

Test [1] has as its target T1, Menin/MLL (terbium chelate-labeled menin, FITC-MBM1 peptide) (Homo sapiens, UniProt O00255, T541A).
T1 construct: Menin (a.a. 1-610-6×his tag) was labeled with terbium cryptate as follows
T1 sequence (O00255 with tags, fused parts or gaps T541A): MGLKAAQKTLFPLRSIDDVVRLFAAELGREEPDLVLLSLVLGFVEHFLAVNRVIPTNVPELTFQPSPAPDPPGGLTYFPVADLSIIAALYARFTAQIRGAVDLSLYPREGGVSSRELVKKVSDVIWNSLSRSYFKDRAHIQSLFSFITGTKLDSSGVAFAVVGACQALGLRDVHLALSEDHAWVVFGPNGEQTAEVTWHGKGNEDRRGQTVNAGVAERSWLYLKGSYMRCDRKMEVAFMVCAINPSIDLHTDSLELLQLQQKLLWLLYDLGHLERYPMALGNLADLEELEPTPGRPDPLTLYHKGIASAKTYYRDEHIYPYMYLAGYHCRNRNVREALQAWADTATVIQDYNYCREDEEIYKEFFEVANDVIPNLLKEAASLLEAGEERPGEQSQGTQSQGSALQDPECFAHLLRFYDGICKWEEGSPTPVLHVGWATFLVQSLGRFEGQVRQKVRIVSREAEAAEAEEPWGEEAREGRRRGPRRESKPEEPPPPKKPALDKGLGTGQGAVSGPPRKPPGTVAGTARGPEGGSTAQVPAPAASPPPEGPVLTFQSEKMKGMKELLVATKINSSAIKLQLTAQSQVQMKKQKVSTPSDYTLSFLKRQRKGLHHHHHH
In words: Menin/MLL homogenous time-resolved fluorescence (HTRF) assay. The test is classed as binding. The gist of the method:
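Compound preincubated 5 min with terbium-cryptate-labeled menin (aa 1-610, His-tagged; 100 pM final), then 75 nM FITC-MBM1 peptide added, 15 min at ambient temperature; 0.5% DMSO, Tris pH 7.5 buffer. HTRF ratio 520/490 nm; % inhibition vs saturating competitor, IC50 from 11-point three-fold titration from 31 μM.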

In the next test the test system is KG1. In words: Proliferation assay (spheroid assay) KG1 control cell line. Type of test: cell-based. The note with it: Homo sapiens, KG-1, averaged values over all measurements. The protocol: as §1, §2, §3, §4, §5, §6, §7
The test system of a further test is MV-4-11. Briefly: Proliferation assay (spheroid assay) MV-4-11. Type of test: cell-based, human. The gist of the method: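 Cells were grown as spheroids in ultra-low attachment round-bottom wells with compound (0.3% DMSO) for 8 d at 37 °C, imaged every 4 h, with confluence as spheroid size. AUC of confluence versus time (t=0 baseline) was expressed as % of DMSO control, and absolute IC50 came from a least-squares nonlinear fit.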

Another test deals with K562. In words: Proliferation assay (spheroid assay) K562 control cell line. The test is classed as cell-based. As to conditions: Homo sapiens. The protocol:
as §1, §2, §3, §4, §5, §6, §7

In test [2] the target is T2, Menin/MLL (menin, FITC-MBM1 peptide) (Homo sapiens, UniProt O00255, T541A).
T2 construct: 6xHis (C)
T2 sequence (O00255 with tags, fused parts or gaps T541A): T1 sequence (O00255 with tags, fused parts or gaps T541A)
In words: Menin/MLL fluorescence polarization (FP) assay. The note with it: averaged values over all measurements; read-out: Menin FP assay (IC50). The test is classed as binding. Here is the method: Pharmacological Part 1) Menin/MLL Fluorescence Polarization Assay
To a non-surface binding, black 384-well microtiter plate was added 50 nL 160× test compound in DMSO and 4 μL 2× menin in assay buffer (40 mM Tris-HCl, pH 7.5, 50 mM NaCl, 1 mM DTT and 0.001% Tween 20). After incubation of test compound and menin for 10 min at ambient temperature, 4 μL 2×FITC-MBM1 peptide (FITC-β-alanine-SARWRFPARPGT-NH2) in assay buffer was added, the microtiter plate centrifuged at 1000 rpm for 1 min and the assay mixtures incubated for 15 min at ambient temperature. The relative amount of menin: FITC-MBM1 complex present in an assay mixture is determined by measuring the fluorescence polarization (FP) of the FITC label with a BMG Pherastar plate reader (ex. 485 nm/em. 520 nm) at ambient temperature. The final concentrations of reagents in the binding assay are 100 nM menin, 5 nM FITC-MBM1 peptide and 0.625% DMSO in assay buffer. Dose-response titrations of test compounds are conducted using an 11 point, three-fold serial dilution scheme, starting at 31 μM.
Compound potencies were determined by first calculating % inhibition at each compound concentration according to equation 1: % inhibition=((HC−LC)−(FP^compound−LC))/(HC−LC))*100 (Eqn 1)
Where LC and HC are the FP values of the assay in the presence or absence of a saturating concentration of a compound that competes with FITC-MBM1 for binding to menin, and FP^compound is the measured FP value in the presence of the test compound. HC and LC FP values represent an average of at least 16 replicates per plate.
Where Bottom and Top are the lower and upper asymptotes of the dose-response curve, respectively, IC50 is the concentration of compound that yields 50% inhibition of signal and h is the Hill coefficient.

Setting [3] is: MOLM-14, MOLM14, averaged values over all measurements, read-out: Spheroid assay MOLM14 (IC50).
Setting [4] is: averaged values over all measurements, read-out: Menin HTRF assay (IC50).
[5] abbreviates: Homo sapiens, MV4-11, MV-4-11, averaged values over all measurements, read-out: Spheroid assay MV-4-11 (IC50).
The mark [6] stands for this setting: K562 control cell line, averaged values over all measurements, read-out: Spheroid assay K562 (IC50).

As to `COc1cc(CN2CC[C@@H]3CN(c4ncnc5sc(CC(F)(F)F)cc45)C[C@@H]3C2)ccn1` (single isomer, unassigned) [Compound 63], the IC50 worked out at 0.8 µM in the test on MOLM14 (setting [3]), 61 nM in test [1] (setting [4]), 9500 nM with KG1 and 0.65 µM with MV-4-11 (setting [5]).

Regarding `CC(C)(C)OC(=O)N1CCC(CN2CC[C@@H]3CN(c4ncnc5sc(CC(F)(F)F)cc45)C[C@@H]3C2)CC1` (single isomer, unassigned) [Compound 20], the IC50 in the test with MOLM14 (setting [3]) was 0.98 µM; in test [1] (setting [4]) it was 31 nM; in the test with MV-4-11 (setting [5]), 0.38 µM; in the test with K562 (setting [6]), above 15 µM.

For `CCCN1CC[C@@H]2CN(c3ncnc4sc(CC(F)(F)F)cc34)C[C@@H]2C1` (single isomer, unassigned) [Compound 57], the IC50 with MOLM14 (setting [3]) is 2.1 µM; in test [1] (setting [4]), 67 nM; in the test with KG1, above 15000 nM; in the test with MV-4-11 (setting [5]), 0.59 µM.

`FC(F)(F)Cc1cc2c(N3C[C@H]4CCN(Cc5ccc(Cl)nc5)C[C@H]4C3)ncnc2s1` (single isomer, unassigned) [Compound 42]: the IC50 with MOLM14 (setting [3]) was 1.6 µM; in test [1] (setting [4]) it was 21 nM; with KG1, above 15000 nM; in the test with MV-4-11 (setting [5]), 0.47 µM.

On to `Cc1ccc(CN2CC[C@@H]3CN(c4ncnc5sc(CC(F)(F)F)cc45)C[C@@H]3C2)cn1` (single isomer, unassigned) [Compound 40], for which the IC50 was 1.6 µM in the test with MOLM14 (setting [3]), 25 nM in test [1] (setting [4]), 8100 nM with KG1 and 0.26 µM in the test on MV-4-11 (setting [5]).

As for `FC(F)(F)Cc1cc2c(N3C[C@H]4CCN(CC5CCCOC5)C[C@H]4C3)ncnc2s1` (single isomer, unassigned) [Compound 99], the figures for the IC50 (in test [1] (setting [4]); with KG1; in the test on MV-4-11 (setting [5])) were 33 nM, above 15000 nM and 0.24 µM, respectively.

For the molecule `Fc1ccc(CN2CC[C@@H]3CN(c4ncnc5sc(CC(F)(F)F)cc45)C[C@@H]3C2)cn1` (single isomer, unassigned) [Compound 37], the IC50 is 1.3 µM with MOLM14 (setting [3]), 41 nM in test [1] (setting [4]), above 15000 nM in the test on KG1 and 0.48 µM in the test on MV-4-11 (setting [5]).

With `O=c1ccc(CN2CC[C@@H]3CN(c4ncnc5sc(CC(F)(F)F)cc45)C[C@@H]3C2)c[nH]1` (single isomer, unassigned) [Compound 67], the IC50 in the test on MOLM14 (setting [3]) was 3.2 µM; in test [1] (setting [4]) it was 27 nM; in the test with KG1 it was above 15000 nM; with MV-4-11 (setting [5]), 0.32 µM.

As for `[2H]C([2H])(c1ccccc1)N1CC[C@@H]2CN(c3ncnc4sc(CC(F)(F)F)cc34)CC[C@@H]21` (single isomer, unassigned) [Compound 5], the IC50 in the test on MOLM14 (MOLM-14, 192 h, MOLM14, 8 d, individual measurements (not averaged), read-out: (2) Spheroid assay MOLM14 (IC50 (μM))) was 4.3 µM; in test [1] (individual measurements (not averaged), read-out: (3) Menin HTRF assay (IC50 (nM))), 9 nM; in the test with MV-4-11 (MV-4-11, 8 d, individual measurements (not averaged), read-out: (2) Spheroid assay MV-4-11 (IC50 (μM))), 2.1 µM and > 15 µM; in the test with K562 (192 h, K562, 8 d, individual measurements (not averaged), read-out: (2) Spheroid assay K562 (IC50 (μM))), above 15 µM.

On to `COc1ccc(CN2CC[C@@H]3CN(c4ncnc5sc(CC(F)(F)F)cc45)C[C@@H]3C2)cn1` (single isomer, unassigned) [Compound 45], for which the IC50 was 1.8 µM in the test on MOLM14 (setting [3]), 16 nM in test [1] (setting [4]), above 15000 nM in the test with KG1 and 0.28 µM with MV-4-11 (setting [5]).

`Fc1ccccc1CN1CC[C@@H]2CN(c3ncnc4sc(CC(F)(F)F)cc34)CC[C@@H]21` (single isomer, unassigned) [Compound 7]: the IC50 is 630 nM in test [2], 14.6 µM in the test on MOLM14 (setting [3]), 510 nM in test [1] (setting [4]) and above 15 µM with K562 (setting [6]).

As for `FC(F)(F)Cc1cc2c(N3C[C@H]4CCN(Cc5ccncc5)C[C@H]4C3)ncnc2s1` (single isomer, unassigned) [Compound 64], the IC50 with MOLM14 (setting [3]) is 0.77 µM; in test [1] (setting [4]), 25 nM; with KG1, 8400 nM; in the test with MV-4-11 (setting [5]), 0.55 µM.

Take `Cc1ncccc1CN1CC[C@@H]2CN(c3ncnc4sc(CC(F)(F)F)cc34)C[C@@H]2C1` (single isomer, unassigned) [Compound 60]: the concentration for half-maximal inhibition (IC50) came to 0.22 µM with MOLM14 (setting [3]), 95 nM in test [1] (setting [4]), 1800 nM in the test with KG1 and 0.66 µM in the test on MV-4-11 (setting [5]).

Turning to `FC(F)(F)Cc1cc2c(N3C[C@H]4CCN(Cc5cccnc5Cl)C[C@H]4C3)ncnc2s1` (single isomer, unassigned) [Compound 41], the IC50 in the test with MOLM14 (setting [3]) came out at 1.2 µM; in test [1] (setting [4]) it was 74 nM; with KG1, 4500 nM; in the test with MV-4-11 (setting [5]) it was 0.84 µM.

As for `FC(F)(F)Cc1cc2c(N3C[C@H]4CCN(CC5CCNCC5)C[C@H]4C3)ncnc2s1` (single isomer, unassigned) [Compound 70B], the IC50 with MOLM14 (setting [3]) is 2 µM; in test [1] (setting [4]), 24 nM; in the test on MV-4-11 (setting [5]) it was 0.28 µM; in the test on K562 (setting [6]), above 15 µM.
